Results reported in PMC8960621, “Solution speciation and human serum protein binding of indium(III) complexes of 8-hydroxyquinoline, deferiprone and maltol” (Journal of Biological Inorganic Chemistry, 2022).

Legend:
apo-transferrin (apoTf) = biological target: T1, apo-transferrin (apoTf) (Homo sapiens, UniProt P02787); settings: similar conditions; cited from earlier work
T1 construct: purchased Sigma-Aldrich T2036

[1] = parameters: method as in PMID 23089600; settings: 10 μM, pH 7.4; cited from earlier work
[2] = biological target: T2, human serum albumin (HSA) (Homo sapiens, UniProt P02768); parameters: method as in PMID 25398250; settings: cited from earlier work
T2 construct: purchased Sigma-Aldrich A8763

[3] = parameters: method as in PMID 25398250; settings: same LMM competitors in tenfold excess, investigated separately; cited from earlier work
[4] = biological target: T2, human serum albumin (HSA); test: HSA binding by membrane ultrafiltration-UV-vis; settings: 2.5 equiv. protein
apoTf = biological target: T3, apoTf (Homo sapiens, UniProt P02787); test: Fluorescence lifetime (TCSPC) of InQ3 in the presence of apoTf; format: binding; settings: in the presence of 0.1 – 0.3 equiv. apoTf, after 1 min waiting time
T3 construct: purchased Sigma-Aldrich T2036
Method: Therefore, UV–vis and fluorescence emission spectra of InQ3 were recorded in the presence of increasing amounts of apoTf (Fig. 5a, b). After a short initial phase, the absorbance band of InQ3 is reduced gradually by the addition of the protein, while the development of the new band at lower wavelengths (at ca. 310 nm) refers to the liberation of HQ. Namely, there is a competition for In(III) ion between the ligand and the iron-binding sites of apoTf. Absorbance values depicted at 370 nm and 310 nm (Fig. 5c) saturate roughly to the corresponding values of the free ligand and outline a sigmoidal shape. Fluorescence intensity of the same sample set (Fig. 5b, d) was enhanced and moderately blue shifted (from λmax = 540 nm to 532 nm) until the addition of ca. 0.2 equiv. apoTf. […] Then, by the addition of more apoTf, intensities decreased and λmax shifted further to shorter wavelengths (527 nm). […] This is further supported by fluorescence lifetime measurements; where new lifetime components τ3 = 4.7 ± 0.2 ns and τ4 = 13.8 ± 0.4 ns appeared for InQ3 in the presence of 0.1 – 0.3 equiv. apoTf (after 1 min waiting time). […] Here, the sigmoid shape of the UV–vis absorbance was seen again (Fig. S5) and the shifted inflection point in comparison to the titration with apoTf underlines the lower In(III) binding capacity of Tf. […]

[5] = Interaction of tris-ligand complexes with low molecular mass serum components (phosphate, citrate, oxalate), UV-vis; format: physicochemical; settings: tenfold excess of the LMM ligands (phosphate, citrate, oxalate), pH 7.4
Source text: As a first step, interaction of the tris-ligand In(III) complexes with various LMM blood serum components was investigated and compared to that of GaQ3 studied formerly in our research group. The LMM compounds are considered to be more mobile than the high molecular mass components (HMM) such as proteins, and generally their reaction is characterized by faster kinetics. The role of serum compounds might have importance on the distribution of the In(III) complexes since they may be responsible for (partial) displacement of the originally coordinated ligand and they can also form mixed-ligand complexes. The complexes of In(III) and Ga(III) formed with HQ (InQ3, GaQ3), deferiprone (InD3) and maltol (InM3) were prepared in an aqueous solution by mixing the respective ligand and the metal ion in 3:1 ratio. […] All the measurements in this work were performed at 25 °C as most of the stability constants used for the modeling calculations published in the literature were determined at this temperature. UV–vis spectra recorded for the tris-ligand complexes at 10 μM concentration (see Fig. S1a for InQ3) in this buffer show 94%, 90% and < 20% non-dissociated InQ3, InD3 and InM3, respectively, which corresponds well to the fractions obtained using the stability constants determined at 0.20 M KCl: 90% (InQ3), 86% (InD3) and 9% InM3 and 6% InM^2+. […]

T2 sequence (P02768 25-609): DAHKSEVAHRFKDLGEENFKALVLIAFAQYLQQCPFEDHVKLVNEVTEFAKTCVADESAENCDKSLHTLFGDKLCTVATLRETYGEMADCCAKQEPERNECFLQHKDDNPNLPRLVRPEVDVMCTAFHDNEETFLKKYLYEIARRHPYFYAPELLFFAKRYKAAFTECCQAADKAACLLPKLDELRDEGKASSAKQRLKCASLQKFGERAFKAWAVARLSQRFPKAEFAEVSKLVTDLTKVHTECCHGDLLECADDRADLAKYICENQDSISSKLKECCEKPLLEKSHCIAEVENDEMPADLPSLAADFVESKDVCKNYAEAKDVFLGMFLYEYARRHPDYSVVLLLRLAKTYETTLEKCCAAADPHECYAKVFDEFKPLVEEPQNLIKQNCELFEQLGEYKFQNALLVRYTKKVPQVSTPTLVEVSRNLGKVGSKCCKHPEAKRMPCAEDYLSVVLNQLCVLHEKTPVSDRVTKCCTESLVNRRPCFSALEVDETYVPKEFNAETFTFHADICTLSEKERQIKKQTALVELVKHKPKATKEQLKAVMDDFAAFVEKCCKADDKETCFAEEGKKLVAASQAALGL
T3 sequence (P02787 20-698): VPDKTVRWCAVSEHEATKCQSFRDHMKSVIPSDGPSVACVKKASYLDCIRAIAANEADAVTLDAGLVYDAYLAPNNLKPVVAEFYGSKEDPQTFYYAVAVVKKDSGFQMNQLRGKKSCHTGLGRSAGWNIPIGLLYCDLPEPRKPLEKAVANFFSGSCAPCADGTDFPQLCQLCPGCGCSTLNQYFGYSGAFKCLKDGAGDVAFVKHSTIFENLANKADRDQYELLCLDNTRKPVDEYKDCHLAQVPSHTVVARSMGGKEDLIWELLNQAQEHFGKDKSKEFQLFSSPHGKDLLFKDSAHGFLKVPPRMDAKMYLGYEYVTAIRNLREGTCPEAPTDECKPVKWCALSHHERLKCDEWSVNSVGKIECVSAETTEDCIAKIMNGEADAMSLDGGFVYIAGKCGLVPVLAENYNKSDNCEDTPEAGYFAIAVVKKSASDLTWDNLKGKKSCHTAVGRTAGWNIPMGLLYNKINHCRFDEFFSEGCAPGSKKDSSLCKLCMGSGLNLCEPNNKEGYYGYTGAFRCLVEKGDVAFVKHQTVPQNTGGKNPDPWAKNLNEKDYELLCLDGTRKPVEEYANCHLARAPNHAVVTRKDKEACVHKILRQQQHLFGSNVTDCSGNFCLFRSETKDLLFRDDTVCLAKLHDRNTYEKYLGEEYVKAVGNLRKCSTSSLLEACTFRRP
T1 sequence (P02787 20-698): as above

[Ga+3].[O-]c1cccc2cccnc12.[O-]c1cccc2cccnc12.[O-]c1cccc2cccnc12 [GaQ3, Tris(8-Quinolinolato)gallium(III), reference compound]
time of interaction with apoTf (apo-transferrin (apoTf)): ≤ 1 h
fraction of tris-ligand complex [1]: 86%
logK’ (HSA binding constant) [2]: 4.04
effect of LMM competitors on the complex [3]: practically not affected

Cc1c([O-])c(=O)ccn1C.Cc1c([O-])c(=O)ccn1C.Cc1c([O-])c(=O)ccn1C.[In+3] [InD3]
In(III) ion bound to the protein (deferiprone liberation) [4]: ca. 7%
complex bound to HSA [4]: ca. 8%

[In+3].[O-]c1cccc2cccnc12.[O-]c1cccc2cccnc12.[O-]c1cccc2cccnc12 [InQ3, Tris(8-Quinolinolato)indium(III)]
τ3 (apoTf): 4.7 ± 0.2 ns
τ4 (apoTf): 13.8 ± 0.4 ns
complex remained [5]: ca. 34%
